Earlier results on four compounds are cited in paper PMC8513935.

A short description of data set [1]: log P octanol/water from commercial databases, averaged (the ESI). Particulars: Octanol (wet), 25 C.
Data set [2] is described as follows: experimental, compiled by the authors from the literature (the ESI cites the sources).
The nature of data set [3]: derived by the authors as gas->solvent minus gas->water (a hypothetical dry solvent; the ESI), not a two-phase measurement.

Molecules are shown by their SMILES.

As for `CCCCCCC`, the log K of transfer, water to solvent in data set [1] was 4.5 log10 K; in data set [3] (1,2-Dichloroethane, 25 C) it was 4.94 log10 K; in data set [3] (2-Methylpropan-1-ol, 25 C), 4.83 log10 K; in data set [3] (2-Methylpropan-2-ol, 25 C) it was 4.86 log10 K; in data set [3] (3-Methylbutan-1-ol, 25 C), 4.85 log10 K; in data set [3] (Acetone, 25 C), 4.77 log10 K. Further, the log K of transfer, water to solvent in data set [3] (Acetonitrile, 25 C) is 4.31 log10 K; in data set [3] (Butan-1-ol, 25 C), 4.84 log10 K; in data set [3] (Butanone, 25 C) it was 4.99 log10 K; in data set [3] (Butyronitrile, 25 C) it was 4.78 log10 K; in data set [3] (CCl4, 25 C) it was 5.44 log10 K; in data set [3] (Chlorobenzene, 25 C), 5.43 log10 K. Further, the log K of transfer, water to solvent in data set [3] (Chloroform, 25 C) is 5.35 log10 K; in data set [3] (Cyclohexanone, 25 C), 4.91 log10 K; in data set [3] (Di-n-butyl ether, 25 C), 5.34 log10 K; in data set [3] (Dichloromethane, 25 C), 5.23 log10 K; in data set [3] (Ethanol, 25 C), 4.67 log10 K; in data set [3] (Hexadecane, 25 C) it was 5.13 log10 K. For the same compound, the log K of transfer, water to solvent in data set [3] (Hexan-1-ol, 25 C) was 4.89 log10 K; in data set [3] (Hexane, 25 C), 5.46 log10 K; in data set [3] (Methanol, 25 C), 4.46 log10 K; in data set [3] (Octan-1-ol(dry), 25 C) it was 4.91 log10 K; in data set [3] (Perfluoroalkane, 25 C) it was 4.21 log10 K; in data set [3] (Propan-1-ol, 25 C), 4.7 log10 K. The log K of transfer, water to solvent in data set [3] (Propan-2-ol, 25 C) is 4.7 log10 K; in data set [3] (Propionitrile, 25 C), 4.63 log10 K; in data set [3] (Tetrahydrofuran, 25 C), 5.3 log10 K; in data set [3] (Toluene, 25 C) it was 5.29 log10 K. Also, the log K of transfer, gas to solvent was 2.98 log10 K in data set [2] (1,2-Dichloroethane, 25 C); 2.87 log10 K in data set [2] (2-Methylpropan-1-ol, 25 C); 2.9 log10 K in data set [2] (2-Methylpropan-2-ol, 25 C); 2.89 log10 K in data set [2] (3-Methylbutan-1-ol, 25 C); 2.35 log10 K in data set [2] (Acetonitrile, 25 C); 2.88 log10 K in data set [2] (Butan-1-ol, 25 C). Also, the log K of transfer, gas to solvent in data set [2] (Butanone, 25 C) is 3.03 log10 K; in data set [2] (Butyronitrile, 25 C) it was 2.82 log10 K; in data set [2] (CCl4, 25 C) it was 3.48 log10 K; in data set [2] (Chlorobenzene, 25 C), 3.47 log10 K; in data set [2] (Chloroform, 25 C) it was 3.39 log10 K; in data set [2] (Cyclohexanone, 25 C) it was 2.95 log10 K. Also, the log K of transfer, gas to solvent in data set [2] (Di-n-butyl ether, 25 C) is 3.38 log10 K; in data set [2] (Dichloromethane, 25 C), 3.27 log10 K; in data set [2] (Ethanol, 25 C), 2.71 log10 K; in data set [2] (Hexadecane, 25 C), 3.17 log10 K; in data set [2] (Hexan-1-ol, 25 C) it was 2.93 log10 K; in data set [2] (Hexane, 25 C), 3.5 log10 K. Moreover, the log K of transfer, gas to solvent was 2.5 log10 K in data set [2] (Methanol, 25 C); 2.95 log10 K in data set [2] (Octan-1-ol, 25 C); 2.25 log10 K in data set [2] (Perfluoroalkane, 25 C); 2.74 log10 K in data set [2] (Propan-1-ol, 25 C); 2.74 log10 K in data set [2] (Propan-2-ol, 25 C); 2.81 log10 K in data set [2] (Propanone, 25 C). Moreover, the log K of transfer, gas to solvent in data set [2] (Propionitrile, 25 C) was 2.67 log10 K; in data set [2] (Tetrahydrofuran, 25 C), 3.34 log10 K; in data set [2] (Toluene, 25 C), 3.33 log10 K; in data set [2] (Water, 25 C), -1.96 log10 K.

On to `CC(C)(C)c1ccccc1`, for which the log K of transfer, water to solvent is 4.11 log10 K in data set [1]; 4.09 log10 K in data set [3] (Hexadecane, 25 C); 3.73 log10 K in data set [3] (Methanol, 25 C); 3.78 log10 K in data set [3] (Propan-2-ol, 25 C); 4.77 log10 K in data set [3] (Tetrahydrofuran, 25 C). In addition, the log K of transfer, gas to solvent in data set [2] (Hexadecane, 25 C) was 4.41 log10 K; in data set [2] (Methanol, 25 C), 4.05 log10 K; in data set [2] (Propan-2-ol, 25 C), 4.1 log10 K; in data set [2] (Tetrahydrofuran, 25 C), 5.09 log10 K; in data set [2] (Water, 25 C), 0.32 log10 K.

For `CCCCCCCCCCCCCCCCO`, the log K of transfer, water to solvent in data set [1] is 7.32 log10 K; in data set [3] (Decan-1-ol, 25 C), 7.84 log10 K; in data set [3] (Di-n-butyl ether, 25 C) it was 7.61 log10 K; in data set [3] (Diethyl Ether, 25 C), 7.89 log10 K; in data set [3] (Hexadecane, 25 C), 6.63 log10 K; in data set [3] (Hexan-1-ol, 25 C) it was 7.92 log10 K. Further, the log K of transfer, water to solvent in data set [3] (Octan-1-ol(dry), 25 C) was 7.88 log10 K; in data set [3] (Propan-2-ol, 25 C) it was 8.03 log10 K. Besides, the log K of transfer, gas to solvent in data set [2] (Decan-1-ol, 25 C) is 9.86 log10 K; in data set [2] (Di-n-butyl ether, 25 C) it was 9.63 log10 K; in data set [2] (Diethyl Ether, 25 C), 9.91 log10 K; in data set [2] (Hexadecane, 25 C) it was 8.65 log10 K; in data set [2] (Hexan-1-ol, 25 C), 9.93 log10 K; in data set [2] (Octan-1-ol, 25 C) it was 9.9 log10 K. For the same compound, the log K of transfer, gas to solvent in data set [2] (Propan-2-ol, 25 C) is 10 log10 K; in data set [2] (Water, 25 C), 2.02 log10 K.

In the case of `Cc1cccc(C)c1`, the log K of transfer, water to solvent in data set [1] was 3.2 log10 K; in data set [3] (1,2-Dichloroethane, 25 C), 3.77 log10 K; in data set [3] (CCl4, 25 C), 3.57 log10 K; in data set [3] (Chloroform, 25 C), 3.68 log10 K; in data set [3] (Cyclohexane, 25 C) it was 3.34 log10 K; in data set [3] (Hexadecane, 25 C), 3.23 log10 K. Moreover, the log K of transfer, water to solvent in data set [3] (Octan-1-ol(dry), 25 C) is 3.18 log10 K. Further, the log K of transfer, gas to solvent is 4.38 log10 K in data set [2] (1,2-Dichloroethane, 25 C); 4.18 log10 K in data set [2] (CCl4, 25 C); 4.29 log10 K in data set [2] (Chloroform, 25 C); 3.95 log10 K in data set [2] (Cyclohexane, 25 C); 3.84 log10 K in data set [2] (Hexadecane, 25 C); 3.79 log10 K in data set [2] (Octan-1-ol, 25 C). Further, in data set [2] (Water, 25 C), the log K of transfer, gas to solvent is 0.61 log10 K.
